Here are results for 5 molecules from ChEMBL document CHEMBL2331252, “Facile one-pot synthesis of novel dispirooxindole-pyrrolidine derivatives and their antimicrobial and anticancer activity against A549 human lung adenocarcinoma cancer cell line” (Bioorg Med Chem Lett, 2013).

Structures are written as SMILES. ≈ marks a conversion by molar mass, not a printed value. Calls of active or inactive are those of the source. No cut-off for these calls is given here.

A word on the MIC: it is the least concentration at which growth counts as inhibited. Read a high MIC as weaker potency.

Assay type in all cases: functional
A short description of experiment [1]: Antifungal activity against Malassezia pachydermatis at 1 mg/disc after 48 hrs by disc diffusion method. (Agar diffusion results depend on both activity and mobility in agar.)
The test system of experiment [2] is Candida albicans. Put plainly: Antifungal activity against Candida albicans MTCC 227 at 1 mg/disc after 48 hrs by disc diffusion method.
Experiment [3] relates to Candida albicans. The experiment in a line: Antifungal activity against Candida albicans MTCC 227 after 48 to 72 hrs.
Experiment [4] has as its system A549. The experiment in a line: Cytotoxicity against human A549 cells assessed as cell death at 100 ug/ml by MTT assay.
The test system of a further experiment is Micrococcus luteus. Put plainly: Antibacterial activity against Micrococcus luteus MTCC 106 at 1 mg/disc after 24 hrs by disc diffusion method.
Another experiment relates to Klebsiella aerogenes. Put plainly: Antibacterial activity against Enterobacter aerogenes MTCC 111 at 1 mg/disc after 24 hrs by disc diffusion method.
A further experiment relates to Proteus vulgaris. The experiment in a line: Antibacterial activity against Proteus vulgaris MTCC 1771 at 1 mg/disc after 24 hrs by disc diffusion method.
The test system of experiment [5] is A549. Put plainly: Cytotoxicity against human A549 cells assessed as cell death at 200 ug/ml by MTT assay. (Tetrazolium dyes change colour on reduction, which living cells bring about.)
Experiment [6] relates to Staphylococcus aureus. The experiment in a line: Antibacterial activity against Staphylococcus aureus MTCC 96 at 1 mg/disc after 24 hrs by disc diffusion method.
Another experiment deals with Klebsiella pneumoniae. The experiment in a line: Antibacterial activity against Klebsiella pneumoniae MTCC 109 at 1 mg/disc after 24 hrs by disc diffusion method.
For experiment [7], the system named is Staphylococcus aureus. The experiment in a line: Antibacterial activity against methicillin-resistant Staphylococcus aureus at 1 mg/disc after 24 hrs by disc diffusion method.
Experiment [8] has as its system A549. Put plainly: Cytotoxicity against human A549 cells assessed as cell death at 50 ug/ml by MTT assay.
The next experiment relates to Shigella flexneri. The experiment in a line: Antibacterial activity against Shigella flexneri MTCC 1457 at 1 mg/disc after 24 hrs by disc diffusion method.
The test system of the next experiment is Salmonella typhimurium. Put plainly: Antibacterial activity against Salmonella typhimurium MTCC 1251 at 1 mg/disc after 24 hrs by disc diffusion method. As to conditions: for inhibition: Salmonella enterica subsp. enterica serovar Typhimurium.

Take `CC(=O)N1CCN(c2ccc(OCC3COC(Cn4ccnc4)(c4ccc(Cl)cc4Cl)O3)cc2)CC1` (stereo not given) [KETOCONAZOLE]: the inhibition zone (IZ) amounted to 26 mm in [1] and 28 mm in the experiment with Candida albicans [2]. The molecule further had an MIC in the experiment on Candida albicans [3] of 25 µg/mL (≈ 47 µM).
On to `CN1C[C@](C#N)(C(=O)c2c[nH]c3ccccc23)[C@]2(C(=O)Nc3ccccc32)[C@@]12C(=O)N(c1ccccc1)c1ccccc12`, for which the Activity is on record as 41.58% in the experiment on A549 [4], 47.89% in the experiment on A549 [5] and 39.41% with A549 [8]. Moreover, the inhibition result in the experiment with Micrococcus luteus, in the experiment with Klebsiella aerogenes, with Proteus vulgaris, in the experiment on Staphylococcus aureus [7], in the experiment with Shigella flexneri and with Salmonella typhimurium was “inactive” each time. Moreover, the “inhibition zone (IZ)” value was 7 mm with Staphylococcus aureus [6], 14 mm in experiment [1], 13 mm in the experiment on Candida albicans [2] and 9 mm with Klebsiella pneumoniae.
In the case of `CN1C[C@](C#N)(C(=O)c2c[nH]c3ccccc23)[C@]2(C(=O)Nc3ccccc32)[C@@]12C(=O)Nc1ccc([N+](=O)[O-])cc12`, the Activity stood at 36.65% in the experiment with A549 [4], 55.26% in the experiment on A549 [5] and 18.37% in the experiment on A549 [8]. The inhibition result (in the experiment with Micrococcus luteus; in the experiment with Proteus vulgaris; in the experiment on Staphylococcus aureus [6]; in experiment [1]; in the experiment with Klebsiella pneumoniae; in the experiment with Staphylococcus aureus [7]) was “inactive” in each case. The inhibition entry with Shigella flexneri is “inactive”. The “inhibition zone (IZ)” value in the experiment on Klebsiella aerogenes is recorded as 8 mm; in the experiment with Candida albicans [2], 9 mm; with Salmonella typhimurium, 8 mm.
For `CN1C(=O)[C@@]2(c3cc([N+](=O)[O-])ccc31)N(C)C[C@](C#N)(C(=O)c1c[nH]c3ccccc13)[C@]21C(=O)Nc2ccccc21`, the Activity in the experiment with A549 [4] stood at 24.36%; with A549 [5], 60.22%; in the experiment with A549 [8], 9.27%. Besides, the “inhibition zone (IZ)” value in the experiment on Micrococcus luteus turned out to be 7 mm; in [1] it was 12 mm; with Candida albicans [2], 9 mm; in the experiment with Salmonella typhimurium it was 8 mm. Also, the inhibition entry in the experiment on Klebsiella aerogenes, with Proteus vulgaris, in the experiment on Staphylococcus aureus [6], with Klebsiella pneumoniae, in the experiment with Staphylococcus aureus [7] and with Shigella flexneri was “inactive” each time.
Turning to `CCOC(=O)CN1C(=O)[C@@]2(c3ccccc31)N(C)C[C@](C#N)(C(=O)c1c[nH]c3ccccc13)[C@]21C(=O)Nc2ccccc21`, the Activity in the experiment with A549 [4] was determined as 21.25%; in the experiment with A549 [5], 27.78%; in the experiment with A549 [8] it was 11.04%. The inhibition result in the experiment on Micrococcus luteus, with Klebsiella aerogenes, in the experiment with Klebsiella pneumoniae, in the experiment on Staphylococcus aureus [7], with Shigella flexneri and in the experiment on Salmonella typhimurium was “inactive” each time. Besides, the “inhibition zone (IZ)” value was determined as 8 mm in the experiment with Proteus vulgaris, 9 mm in the experiment with Staphylococcus aureus [6], 11 mm in [1] and 9 mm in the experiment on Candida albicans [2].
